Data reported in PMC4967898, “Peptides interfering with protein-protein interactions in the ethylene signaling pathway delay tomato fruit ripening” (Scientific Reports, 2016).
Entries after “also recorded” stand apart in the source; their conditions may differ.

B2: tomato ethylene receptor protein LeETR1 (receptor, UniProt Q41342 1-754, looked up)
chain: MGSLLRMNRLLSSIVESCNCIIDPQLPADDLLMKYQYISDFFIALAYFSIPVELIYFVKKSAVFPYRWVLVQFGAFIVLCGATHLINLWTFNMHTRNVAIVMTTPKALTALVSCITALMLVHIIPDLLSVKTRELFLKKKAAQLDREMGIIRTQEETGRHVRMLTHEIRSTLDRHTILKTTLVELGRTLALEECALWMPTRTGLELQLSYTLRHQNPVGLTVPIQLPVINQVFGTNHVVKISPNSPVARLRPAGKYMPGEVVAVRVPLLHLSNFQINDWPELSTKRYALMVLMLPSDSARQWHVHELELVEVVADQVAVALSHAAILEESMRARDLLMEQNVALDLARREAEMAVRARNDFLAVMNHEMRTPMHAIIALSSLLQETDLTPEQRLMVETILKSSNLLATLINDVLDLSRLEDGSLQLDIGTFNLHALFREVHSLIKPIASVKKLFVTLSLSSDLPEYVIGDEKRLMQILLNVVGNAVKFSKEGNVSISAFVAKSDSLRDPRAPEFFAVPSENHFYLRVQIKDTGIGITPQDIPNLFSKFTQSQALATTNSGGTGLGLAICKRFVNLMEGHIWIESEGLGKGSTAIFIIKLGIPGRANESKLPFVTKLPANHTQMSFQGLKVLVMDENGVSRMVTKGLLTHLGCDVTTVGSRDECLRVVTHEHKVVIMDVSMQGIDCYEVAVVIHERFGKRHGRPLIVALTGNTDRVTKENCMRVGMDGVILKPVSVYKMRSVLSELLEHGVVLES
modifications: Alexa Fluor 488 succinimidyl-ester label (MST with LeEIN2, FRET assay); Alexa Fluor 488-Maleimide label (MST with NOP-1); non-labeled in the reverse MST titration
notes: ethylene receptor ETR1 of tomato (LeETR1); Membrane protein kept in 0.015% Fos-Choline-16 for MST; also called tomato ETR1; tomato receptor

Columns and labels:
[1] = test system: green, immature tomato fruits; test: Tomato fruit ripening after inhibitor treatment; assay type: in vivo, tomato (Solanum pimpinellifolium); conditions: for delay in maturation of tomato fruits: 200 μM, all tested inhibitors and all applications of NOP-1 (injection, incubation, surface application), documented for 20 days, three fruits per application
Text: To further investigate the potential of NOP-1 for agricultural applications, we tested the effect of the NOP-1 peptide on tomato fruit ripening in comparison to other known inhibitors of ethylene responses. To this end we tested […] (MCP) and aminoethoxyvinylglycine (AVG). MCP is a known inhibitor of ethylene signaling blocking ethylene binding at the receptor proteins, whereas AVG blocks ethylene production in the plant by competitive inhibition of ACC synthases. To monitor inhibition of the fruit ripening process, we treated green, immature tomato fruits with 200 μM NOP-1, MCP or AVG, respectively and documented the fruit ripening process for 20 days. Figure 3 compares the effect of the different inhibitor treatments on tomato fruits to controls lacking the inhibitory treatment that contain either buffer alone or a random sequence control peptide (ROP-1). […] The bioassays underline the high inhibitory potential of NOP-1 on the ripening process compared to the well-known and efficient inhibitors of ethylene responses.
Inhibitor-treatment of tomato fruits
Aminoethoxyvinyl glycine (AVG) was purchased from Sigma-Aldrich, St Louis, MO (purity ~95%). SmartFresh^SM (AgroFresh, Spring House, PA) was used as sugar-based powder formulation of 1-MCP. Concentration of 1-MCP was calculated according to the percentage of active ingredient (0.14%) and release from the SmartFresh^SM powder. For comparison concentration of all inhibitors are expressed in terms of molarity. For treatment of tomato fruits with NOP-1, AVG and MCP, inhibitors were dissolved in the FRET buffer described in the previous section to a final concentration of 200 μM. Green tomato fruits (Solanum pimpinellifolium) from the same estimated developmental stage were harvested from the panicle and water-cleaned. 300 μL of the inhibitor solution was applied onto the tomato surface with a brush and the fruits were air-dried for 30 min. As an alternative application, tomato fruits were plunged into 2 mL of the inhibitor solution and incubated for 30 min in this solution or 200 μL of the peptide-containing solution were carefully injected into the tomato tissue by a hypodermic syringe. Three individual tomato fruits were treated for the different applications of the peptide in order to document the ripening process. After inhibitor-treatment tomato fruits were transferred to a vial closed with aluminum foil and stored in the dark at room temperature. Maturation process was documented every second day for at least 20 days. For measurement of ethylene production, green tomato fruits were treated as described above.

[2] = Fluorescence of the dyes on their own (FRET control); conditions: 100 μM peptide; free dyes
Text: (§1) For this purpose, we made use of a fluorescence resonance energy transfer (FRET)-based in vitro assay, originally established for the respective Arabidopsis signaling proteins. Recombinant ethylene proteins LeETR1 and LeEIN2^462–1316 were labeled with fluorescent Alexa dyes[36] as described in the Methods section. LeETR1 was labeled with Alexa Fluor 488, while LeEIN2^462–1316 was labeled with Alexa Fluor 568. As the emission spectrum of the donor fluorophore partially overlaps with the excitation spectrum of the acceptor fluorophore, the dyes form a FRET pair and energy transfer from the donor to the acceptor fluorophore is possible when both probes get in close proximity. […] Formation of the complex is monitored by FRET from the donor molecule Alexa Fluor 488 to the acceptor molecule Alexa Fluor 568. Processes or molecules that prevent complex formation result in a reduced FRET from the donor to the acceptor, which is detected as reduced acceptor fluorescence at the emission maximum.
(b) Calculation of IC50 value for NOP-1. Data were obtained in the FRET-assay in presence of increasing concentrations of NOP-1 peptide. […] (c) Determination of Kd value of NOP-1 binding to LeETR1 based on MST is illustrated. MST-signal is plotted against the NOP-1 concentration. […] All data (a,b,c) represent the mean +/− standard deviation.

tomato EIN2-ETR1 complex = target: T1, tomato EIN2-ETR1 complex (Solanum lycopersicum, UniProt Q41342); test: FRET assay of LeEIN2-LeETR1 complex formation; assay type: biochemical; conditions: FRET assay; 100 μM peptide where stated; LeETR1-Alexa Fluor 488 and LeEIN2-Alexa Fluor 568, 3 μM each
T1 construct: made in house; host or cells: E. coli BL21(DE3) with pRARE (LeEIN2 fragment); E. coli (LeETR1)
T1 sequence (Q41342 1-754): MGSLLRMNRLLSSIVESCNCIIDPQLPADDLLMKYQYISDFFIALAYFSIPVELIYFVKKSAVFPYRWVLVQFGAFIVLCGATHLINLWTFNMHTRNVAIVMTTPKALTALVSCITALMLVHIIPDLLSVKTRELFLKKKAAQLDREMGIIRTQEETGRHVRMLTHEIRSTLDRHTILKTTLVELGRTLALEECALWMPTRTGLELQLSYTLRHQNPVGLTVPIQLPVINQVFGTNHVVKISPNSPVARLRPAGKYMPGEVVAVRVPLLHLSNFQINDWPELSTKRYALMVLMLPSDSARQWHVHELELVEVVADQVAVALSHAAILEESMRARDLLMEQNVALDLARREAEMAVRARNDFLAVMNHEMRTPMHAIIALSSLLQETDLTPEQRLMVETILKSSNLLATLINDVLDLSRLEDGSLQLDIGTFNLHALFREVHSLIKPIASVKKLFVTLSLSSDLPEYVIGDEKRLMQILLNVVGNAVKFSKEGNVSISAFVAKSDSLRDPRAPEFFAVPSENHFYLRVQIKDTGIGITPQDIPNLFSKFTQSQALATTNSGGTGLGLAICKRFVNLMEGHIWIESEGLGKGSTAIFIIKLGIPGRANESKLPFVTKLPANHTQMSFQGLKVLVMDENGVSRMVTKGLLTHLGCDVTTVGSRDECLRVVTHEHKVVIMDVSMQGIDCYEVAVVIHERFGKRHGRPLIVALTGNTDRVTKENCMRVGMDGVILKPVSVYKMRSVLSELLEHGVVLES
Text: as §1
Quantitative analysis of inhibitory peptides on ETR1-EIN2 complex by FRET
For the FRET assay, recombinant LeETR1 was labeled with Alexa Fluor 488 succinimidyl-ester and LeEIN2^462–1316 was labeled with Alexa Fluor 568 succinimidyl-ester (both Life Technologies) in a buffer containing 50 mM potassium phosphate pH 8.0, 300 mM NaCl and 5% (v/v) glycerol following manufacturer’s protocol (MolecularProbes Protein Labeling Kit). Labeled proteins were transferred in FRET buffer containing 50 mM Tris-HCl pH 8.0, 300 mM NaCl, 0.05% (v/v) Tween 20, 5% (v/v) glycerol and mixed at a final concentration of 3.0 μM each. […] The FRET-based binding assay was carried out in 384-well microplates using an Infinite M200 Pro microplate reader (Tecan) at 455 nm excitation wavelength. Emission spectra were detected between 565 nm to 645 nm. FRET efficiencies were calculated from the maximal emission in the absence and in the presence of the supplied peptides and the half maximal inhibitor concentration IC50 was calculated as previously described.

[3] = target: B2; test: MST; 50 nM LeETR1 labeled with Alexa Fluor 488-Maleimide titrated with NOP-1 (3.8 nM to 31 μM); 50 mM Tris-HCl pH 8.0, 300 mM NaCl, 0.015% Fos-Choline-16; 80% MST power; 1:1 model; conditions: both partners purified
[4] = target: B2; test: FRET or BRET; in vitro FRET: LeETR1-Alexa Fluor 488 (donor) and LeEIN2 462-1316-Alexa Fluor 568 (acceptor), 3.0 μM each; 50 mM Tris-HCl pH 8.0, 300 mM NaCl, 0.05% Tween 20, 5% glycerol; proteins pre-incubated with peptides; excitation 455 nm, 384-well plates; conditions: both partners purified
[5] = target: T2, C-terminal part of tomato EIN2 (LeEIN2^462–1316) (tomato, UniProt Q6Q2C1 462-1316, unlabeled in the MST titration of labeled LeETR1; Alexa Fluor 488 label in the reverse MST titration; Alexa Fluor 568 succinimidyl-ester label in the FRET assay); test: MST; 0.4 μM LeETR1-Alexa Fluor 488 titrated with LeEIN2 462-1316 (4.69 nM to 9.6 μM); 50 mM Tris-HCl pH 8.0, 300 mM NaCl, 0.015% Fos-Choline-16; Monolith NT.115, 80% MST power, triplicates; conditions: both partners purified
T2 construct: the N-terminal membrane domain (aa 1-461) was deleted from the full-length cDNA; The purified protein was detected with an anti-polyhistidine antibody; no tag removal is described; also called C-terminal domain of tomato EIN2; source: E. coli BL21(DE3) with pRARE, purified (HisTrap FF, PD-10 desalting)
T2 sequence (looked up): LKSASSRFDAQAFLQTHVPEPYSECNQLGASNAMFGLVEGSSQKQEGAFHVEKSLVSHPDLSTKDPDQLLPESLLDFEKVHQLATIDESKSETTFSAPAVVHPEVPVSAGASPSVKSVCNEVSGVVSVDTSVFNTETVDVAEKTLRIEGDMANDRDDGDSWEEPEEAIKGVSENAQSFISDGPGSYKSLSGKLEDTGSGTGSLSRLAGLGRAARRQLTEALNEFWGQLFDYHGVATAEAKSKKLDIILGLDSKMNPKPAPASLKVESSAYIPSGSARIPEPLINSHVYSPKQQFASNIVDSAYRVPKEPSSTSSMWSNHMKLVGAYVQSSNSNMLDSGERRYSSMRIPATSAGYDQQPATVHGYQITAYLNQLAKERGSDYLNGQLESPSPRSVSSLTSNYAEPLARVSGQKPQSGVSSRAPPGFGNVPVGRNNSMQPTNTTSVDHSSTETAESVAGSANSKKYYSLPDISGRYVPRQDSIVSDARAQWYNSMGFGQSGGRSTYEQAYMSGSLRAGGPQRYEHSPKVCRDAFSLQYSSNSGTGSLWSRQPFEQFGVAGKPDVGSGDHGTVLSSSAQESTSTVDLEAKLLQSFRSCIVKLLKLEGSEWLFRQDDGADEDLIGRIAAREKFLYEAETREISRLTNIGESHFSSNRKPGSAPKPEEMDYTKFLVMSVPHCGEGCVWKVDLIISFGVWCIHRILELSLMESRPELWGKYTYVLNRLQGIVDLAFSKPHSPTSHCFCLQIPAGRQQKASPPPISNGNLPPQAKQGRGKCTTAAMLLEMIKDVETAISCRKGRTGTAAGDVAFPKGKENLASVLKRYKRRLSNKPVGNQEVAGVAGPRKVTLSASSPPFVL

[6] = target: T2, C-terminal part of tomato EIN2 …; test: MST; LeEIN2 462-1316 labeled with Alexa Fluor 488 titrated with non-labeled LeETR1 (Supplementary Fig. S3); conditions: both partners purified

**Q.** For `NCCO/C=C/[C@H](N)C(=O)O` [AVG, aminoethoxyvinylglycine, reference compound], which “delay in maturation of tomato fruits” value [1] is on record?
**A.** Its value is 10 to 15 days.

**Q.** Which “delay in maturation of tomato fruits” value [1] does the source give for `CC1=CC1` [MCP, 1-methylcyclopropane, reference compound] here?
**A.** The value was 10 to 15 days.

**Q.** With “EFLYMSVN-NH2 [ROP-1, reference compound]” as the molecule, how does the “effect on tomato fruit ripening (in words)” value ([1]; compared with buffer or untreated control, inhibitors at 200 μM) read?
**A.** Its value is “no effect on the ripening process; also recorded: A related delay in ripening was not observed”.

**Q.** What about the “effect on fluorescence of the dyes on their own” value [2] of the same molecule?
**A.** Its value is “not affected by the peptides; also recorded: Neither of both peptides affected fluorescence of the free, unlabeled dyes”.

**Q.** What about the “effect on tomato EIN2-ETR1 complex formation” value (tomato EIN2-ETR1 complex) of the same molecule?
**A.** The value was “no effect on tomato EIN2-ETR1 complex formation was observed”.

B1: NOP-1 (LKRYKRRL-NH2) (peptide)
peptide: H-LKRYKRRL-NH2
notes: the motif is fully conserved in tomato EIN2; also called NLS-based peptide; source: synthetic peptide (Molecular Proteomics Laboratory of the BMFZ Düsseldorf, >90% purity)
**Q.** For B1, which Kd [3] is on record?
**A.** The Kd was 156 nM.

**Q.** And the IC50 [4]?
**A.** Its IC50 is 160000 nM.

**Q.** What does the source list for B2?
**A.** Kd [5]: 619 nM; Kd [6]: 651 nM
